Molecular target: T1, Dnmt3a (Mus musculus, UniProt O88508)
T1 construct: C-terminal catalytic domain (Dnmt3a-C)
Assay: Biotin-avidin DNA methylation kinetics assay with [methyl-3H]AdoMet, purified Dnmt3a-C
Type: biochemical

T1 sequence (O88508 608-908 limits assumed): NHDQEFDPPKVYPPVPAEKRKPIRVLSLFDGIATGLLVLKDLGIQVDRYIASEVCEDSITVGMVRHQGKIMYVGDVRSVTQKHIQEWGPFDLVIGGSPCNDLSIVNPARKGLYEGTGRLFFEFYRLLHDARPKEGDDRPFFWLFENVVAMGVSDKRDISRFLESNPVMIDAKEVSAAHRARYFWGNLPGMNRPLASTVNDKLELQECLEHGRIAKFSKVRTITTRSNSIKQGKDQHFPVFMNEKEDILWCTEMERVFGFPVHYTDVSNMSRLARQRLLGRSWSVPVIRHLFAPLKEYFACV

IC50: 35 µM
SMILES: COC(=O)[C@]1(OC(=O)/C=C/c2ccc(O)c(O)c2)C[C@H](OC(=O)/C=C/c2ccc(O)c(O)c2)[C@H]2O[C@@](C)(OC)[C@](C)(OC)O[C@@H]2C1 [N12, 1,3-dicaffeoyl-muco-quinic acid diacetal]
